Source: patent publication US20110053773A1, “METHODS OF IMPROVING NUTRITIONAL VALUE OF PLANTS” (UNIVERSITY OF TENNESSEE RESEARCH FOUNDATION, priority 2009, published 2011)

Experiments:
basil 'Genovese' [1] = test: Visual injury of basil after insecticide, fungicide, PGRs, safeners (Example 4)
Protocol: (§1) Greenhouse and laboratory studies were conducted to ascertain the tolerance and nutritional quality differences following postemergence applications of the insecticide chlorpyrifos, the fungicide chlorothalonil, the PGRs mepiquat-chloride and paclobutrazol, and the safeners napthalic anhydride and isoxadifen-ethyl on kale ‘Red Russian’ and basil ‘Genovese’. Visual injury was rated based on general phytotoxicity, chlorosis, and visual stunting and each measurement was based on a percent scale from 0 to 100 where 0 equals no visual response and 100 equals complete plant death. Kale and basil were both harvested approximately 4 weeks after treatments and plants were pooled over replicates for content analysis of crude protein, crude amino acid content, acid detergent fiber, neutral detergent fiber, total fatty acids, and/or key mineral content (including Na, Ca, P, Mg, K, Fe, Mn, Zn, and Cu). In addition, the amounts of key individual amino acids (aspartic acid, threonine, glutamic acid, proline, glycine, cysteine, valine, leucine, isoleucine, methionine, and lysine) and composite classifications of fatty acid (saturated fatty acids, monounsaturated fatty acids, polyunsaturated fatty acids) were also analyzed from these sub-samples for kale (Tables 10-14).

basil ‘Genovese’ = test: Yield, fresh weight of basil after insecticide, fungicide, PGRs and safeners (Example 4, Table 10); type: in vivo; details: DA-A, check 31.8
Protocol: as §1

basil 'Genovese' [2] = test: Content analysis of basil: protein, minerals (Example 4, Tables 10-11); type: in vivo; details: 28 DA-A
Protocol: as §1

[3] = 7 DA-A, rates g ai/ha: chlropyrifos 1120, chlorothalonil 2630, paclobutrazol 3.23, mepiquat-chloride 12.3, Isoxadifen 8, Napthalic anhydride 264, + NIS 0.25 % v/v
[4] = 7 DA-A, rates g ai/ha: chlropyrifos 3370, chlorothalonil 7900, paclobutrazol 9.7, mepiquat-chloride 37, Isoxadifen 16, Napthalic anhydride 527, + NIS 0.25 % v/v
[5] = 14 DA-A, rates g ai/ha: chlropyrifos 1120, chlorothalonil 2630, paclobutrazol 3.23, mepiquat-chloride 12.3, Isoxadifen 8, Napthalic anhydride 264, + NIS 0.25 % v/v
[6] = 14 DA-A, rates g ai/ha: chlropyrifos 3370, chlorothalonil 7900, paclobutrazol 9.7, mepiquat-chloride 37, Isoxadifen 16, Napthalic anhydride 527, + NIS 0.25 % v/v
[7] = 28 DA-A, rates g ai/ha: chlropyrifos 1120, chlorothalonil 2630, paclobutrazol 3.23, mepiquat-chloride 12.3, Isoxadifen 8, Napthalic anhydride 264, + NIS 0.25 % v/v
[8] = 28 DA-A, rates g ai/ha: chlropyrifos 3370, chlorothalonil 7900, paclobutrazol 9.7, mepiquat-chloride 37, Isoxadifen 16, Napthalic anhydride 527, + NIS 0.25 % v/v
[9] = rates g ai/ha: chlropyrifos 1120, chlorothalonil 2630, paclobutrazol 3.23, mepiquat-chloride 12.3, Isoxadifen 8, Napthalic anhydride 264, + NIS 0.25 % v/v
[10] = rates g ai/ha: chlropyrifos 3370, chlorothalonil 7900, paclobutrazol 9.7, mepiquat-chloride 37, Isoxadifen 16, Napthalic anhydride 527, + NIS 0.25 % v/v
[11] = rates g ai/ha: chlroprifos 3370, chlorothalonil 7900, paclobutrazol 9.7, mepiquat-chloride 37, Isoxadifen 16, Napthalic anhydride 527, + NIS 0.25 % v/v

CCOC(=O)C1=NOC(c2ccccc2)(c2ccccc2)C1 [isoxadifen, isoxadifen-ethyl]
Phytotoxicity Chlorosis (basil 'Genovese' [1]; [3]): 8% | Phytotoxicity General (basil 'Genovese' [1]; [3]): 3% | Phytotoxicity Stunting (basil 'Genovese' [1]; [3]): 2% | Phytotoxicity Chlorosis (basil 'Genovese' [1]; [4]): 7% | Phytotoxicity General (basil 'Genovese' [1]; [4]): 7% | Phytotoxicity Stunting (basil 'Genovese' [1]; [4]): 7% | Phytotoxicity Chlorosis (basil 'Genovese' [1]; [5]): 5% | Phytotoxicity General (basil 'Genovese' [1]; [5]): 2% | Phytotoxicity Stunting (basil 'Genovese' [1]; [5]): 5% | Phytotoxicity Chlorosis (basil 'Genovese' [1]; [6]): 8% | Phytotoxicity General (basil 'Genovese' [1]; [6]): 8% | Phytotoxicity Stunting (basil 'Genovese' [1]; [6]): 10% | Phytotoxicity Chlorosis (basil 'Genovese' [1]; [7]): 2% | Phytotoxicity General (basil 'Genovese' [1]; [7]): 2% | Phytotoxicity Stunting (basil 'Genovese' [1]; [7]): 5% | Phytotoxicity Chlorosis (basil 'Genovese' [1]; [8]): 0% | Phytotoxicity General (basil 'Genovese' [1]; [8]): 7% | Phytotoxicity Stunting (basil 'Genovese' [1]; [8]): 8% | Yield Fresh weight (basil ‘Genovese’; [9]): 34.2 grams | Yield Fresh weight (basil ‘Genovese’; [10]): 36.9 grams | ADF, Percent Increase Over the Untreated Check (on a % dry matter basis) (basil 'Genovese' [2]; [11]): 13 % check | Calcium, Percent Increase Over the Untreated Check (on a % dry matter basis) (basil 'Genovese' [2]; [11]): 6 % check | Copper, Percent Increase Over the Untreated Check (on a % dry matter basis) (basil 'Genovese' [2]; [11]): 0 % check | Iron, Percent Increase Over the Untreated Check (on a % dry matter basis) (basil 'Genovese' [2]; [11]): 27 % check | Magnesium, Percent Increase Over the Untreated Check (on a % dry matter basis) (basil 'Genovese' [2]; [11]): 12 % check | Manganese, Percent Increase Over the Untreated Check (on a % dry matter basis) (basil 'Genovese' [2]; [11]): 118 % check | NDF, Percent Increase Over the Untreated Check (on a % dry matter basis) (basil 'Genovese' [2]; [11]): 0 % check | Phosphorous, Percent Increase Over the Untreated Check (on a % dry matter basis) (basil 'Genovese' [2]; [11]): 28 % check | Potassium, Percent Increase Over the Untreated Check (on a % dry matter basis) (basil 'Genovese' [2]; [11]): 16 % check | Protein, Percent Increase Over the Untreated Check (on a % dry matter basis) (basil 'Genovese' [2]; [11]): 22 % check | Sodium, Percent Increase Over the Untreated Check (on a % dry matter basis) (basil 'Genovese' [2]; [11]): 17 % check | Soluble protein, Percent Increase Over the Untreated Check (on a % dry matter basis) (basil 'Genovese' [2]; [11]): 4 % check | Zinc, Percent Increase Over the Untreated Check (on a % dry matter basis) (basil 'Genovese' [2]; [11]): 34 % check | ADF, Percent Increase Over the Untreated Check (on a % dry matter basis) (basil 'Genovese' [2]; [9]): 6 % check | Calcium, Percent Increase Over the Untreated Check (on a % dry matter basis) (basil 'Genovese' [2]; [9]): −2 % check | Copper, Percent Increase Over the Untreated Check (on a % dry matter basis) (basil 'Genovese' [2]; [9]): 0 % check | Iron, Percent Increase Over the Untreated Check (on a % dry matter basis) (basil 'Genovese' [2]; [9]): 25 % check | Magnesium, Percent Increase Over the Untreated Check (on a % dry matter basis) (basil 'Genovese' [2]; [9]): 9 % check | Manganese, Percent Increase Over the Untreated Check (on a % dry matter basis) (basil 'Genovese' [2]; [9]): 10 % check | NDF, Percent Increase Over the Untreated Check (on a % dry matter basis) (basil 'Genovese' [2]; [9]): 1 % check | Phosphorous, Percent Increase Over the Untreated Check (on a % dry matter basis) (basil 'Genovese' [2]; [9]): 17 % check | Potassium, Percent Increase Over the Untreated Check (on a % dry matter basis) (basil 'Genovese' [2]; [9]): 17 % check | Protein, Percent Increase Over the Untreated Check (on a % dry matter basis) (basil 'Genovese' [2]; [9]): 14 % check | Sodium, Percent Increase Over the Untreated Check (on a % dry matter basis) (basil 'Genovese' [2]; [9]): 27 % check | Soluble protein, Percent Increase Over the Untreated Check (on a % dry matter basis) (basil 'Genovese' [2]; [9]): 12 % check | Zinc, Percent Increase Over the Untreated Check (on a % dry matter basis) (basil 'Genovese' [2]; [9]): 38 % check

O=C1OC(=O)c2cccc3cccc1c23 [napthalic anhydride]
Phytotoxicity Chlorosis (basil 'Genovese' [1]; [3]): 0% | Phytotoxicity General (basil 'Genovese' [1]; [3]): 5% | Phytotoxicity Stunting (basil 'Genovese' [1]; [3]): 0% | Phytotoxicity Chlorosis (basil 'Genovese' [1]; [4]): 2% | Phytotoxicity General (basil 'Genovese' [1]; [4]): 7% | Phytotoxicity Stunting (basil 'Genovese' [1]; [4]): 5% | Phytotoxicity Chlorosis (basil 'Genovese' [1]; [5]): 3% | Phytotoxicity General (basil 'Genovese' [1]; [5]): 7% | Phytotoxicity Stunting (basil 'Genovese' [1]; [5]): 0% | Phytotoxicity Chlorosis (basil 'Genovese' [1]; [6]): 2% | Phytotoxicity General (basil 'Genovese' [1]; [6]): 10% | Phytotoxicity Stunting (basil 'Genovese' [1]; [6]): 7% | Phytotoxicity Chlorosis (basil 'Genovese' [1]; [7]): 2% | Phytotoxicity General (basil 'Genovese' [1]; [7]): 5% | Phytotoxicity Stunting (basil 'Genovese' [1]; [7]): 0% | Phytotoxicity Chlorosis (basil 'Genovese' [1]; [8]): 2% | Phytotoxicity General (basil 'Genovese' [1]; [8]): 3% | Phytotoxicity Stunting (basil 'Genovese' [1]; [8]): 7% | Yield Fresh weight (basil ‘Genovese’; [9]): 41.5 grams | Yield Fresh weight (basil ‘Genovese’; [10]): 24.5 grams | ADF, Percent Increase Over the Untreated Check (on a % dry matter basis) (basil 'Genovese' [2]; [11]): 4 % check | Calcium, Percent Increase Over the Untreated Check (on a % dry matter basis) (basil 'Genovese' [2]; [11]): −8 % check | Copper, Percent Increase Over the Untreated Check (on a % dry matter basis) (basil 'Genovese' [2]; [11]): −17 % check | Iron, Percent Increase Over the Untreated Check (on a % dry matter basis) (basil 'Genovese' [2]; [11]): 0 % check | Magnesium, Percent Increase Over the Untreated Check (on a % dry matter basis) (basil 'Genovese' [2]; [11]): −6 % check | Manganese, Percent Increase Over the Untreated Check (on a % dry matter basis) (basil 'Genovese' [2]; [11]): −16 % check | NDF, Percent Increase Over the Untreated Check (on a % dry matter basis) (basil 'Genovese' [2]; [11]): 1 % check | Phosphorous, Percent Increase Over the Untreated Check (on a % dry matter basis) (basil 'Genovese' [2]; [11]): −9 % check | Potassium, Percent Increase Over the Untreated Check (on a % dry matter basis) (basil 'Genovese' [2]; [11]): −23 % check | Protein, Percent Increase Over the Untreated Check (on a % dry matter basis) (basil 'Genovese' [2]; [11]): 3 % check | Sodium, Percent Increase Over the Untreated Check (on a % dry matter basis) (basil 'Genovese' [2]; [11]): −8 % check | Soluble protein, Percent Increase Over the Untreated Check (on a % dry matter basis) (basil 'Genovese' [2]; [11]): 31 % check | Zinc, Percent Increase Over the Untreated Check (on a % dry matter basis) (basil 'Genovese' [2]; [11]): −13 % check | ADF, Percent Increase Over the Untreated Check (on a % dry matter basis) (basil 'Genovese' [2]; [9]): 13 % check | Calcium, Percent Increase Over the Untreated Check (on a % dry matter basis) (basil 'Genovese' [2]; [9]): 2 % check | Copper, Percent Increase Over the Untreated Check (on a % dry matter basis) (basil 'Genovese' [2]; [9]): 0 % check | Iron, Percent Increase Over the Untreated Check (on a % dry matter basis) (basil 'Genovese' [2]; [9]): 14 % check | Magnesium, Percent Increase Over the Untreated Check (on a % dry matter basis) (basil 'Genovese' [2]; [9]): 12 % check | Manganese, Percent Increase Over the Untreated Check (on a % dry matter basis) (basil 'Genovese' [2]; [9]): 37 % check | NDF, Percent Increase Over the Untreated Check (on a % dry matter basis) (basil 'Genovese' [2]; [9]): 2 % check | Phosphorous, Percent Increase Over the Untreated Check (on a % dry matter basis) (basil 'Genovese' [2]; [9]): 22 % check | Potassium, Percent Increase Over the Untreated Check (on a % dry matter basis) (basil 'Genovese' [2]; [9]): −4 % check | Protein, Percent Increase Over the Untreated Check (on a % dry matter basis) (basil 'Genovese' [2]; [9]): 32 % check | Sodium, Percent Increase Over the Untreated Check (on a % dry matter basis) (basil 'Genovese' [2]; [9]): 33 % check | Soluble protein, Percent Increase Over the Untreated Check (on a % dry matter basis) (basil 'Genovese' [2]; [9]): 4 % check | Zinc, Percent Increase Over the Untreated Check (on a % dry matter basis) (basil 'Genovese' [2]; [9]): 47 % check
